Assay results from patent publication US20250352544A1, “TREATMENT OF MUSCLE ATROPHY USING GSK-3 INHIBITORS” (Technion Research & Development Foundation Limited, priority 2024, published 2025).
Entries after “also recorded” stand apart in the source; their conditions may differ. Non-standard residues stand in square brackets, D forms with d. *: point of attachment. Myristoyl = CCCCCCCCCCCCCC(=O)*; pS = N[C@@H](COP(=O)(O)O)C(=O)O

How the values were obtained:
GSK-3 = details: background statement; cited from earlier work
[1] = tested on: fasting (atrophy-induced) mice, Tibialis Anterior (TA) muscle; assay: Fasting-induced muscle atrophy in mice treated with GSK-3 inhibitors; format: in vivo; details: for TA muscle weight (muscle atrophy): i.p. 0.5 mg CHIR98014 or 0.3 mg L803mts per mouse on day 1 and day 2 of fasting, vs fed and fasting vehicle controls (FIG. 3)
Text: All animal experiments were consistent with Israel Council on Animal Experiments guidelines and the Institutional Regulations of Animal Care and Use. Specialized personnel provided mice care in the institutional animal facility. In fasting (2 d) experiments, food was removed from cages on the fifth day after electroporation.
Mice were divided into two groups: those subjected to fasting to induce muscle atrophy, and those that were fed and used as fed control. Mice of the fasting group were injected intraperitoneally with either CHIR98014 or L803mts to examine their effect on muscle wasting. Control groups (Fed, fasting) were injected with vehicle (3% DMSO in saline). Each mouse (27-30 grams body weight) was injected with 0.3 mg L803mts or 0.5 mg CHIR98014, twice: on the first and then on the second day of fasting. Whole Tibilis anterior (TA) muscles were then collected and the weight loss in these samples over 2 days was measured.
Tideglusib (4.35 mg/ml) was mixed with 26% PEG400 (v/v), 15% Cremophor EL (v/v), and 59% ddH2O (v/v), to a total volume of 2.3 ml. Each mouse received 200 microliter (μL) (0.87 mg Tideglusib) of the solution on the first day of fasting, and 150 μL (0.65 mg Tideglusib) on the second day.
Then, the efficacy of CHIR99021, another exemplary ATP-competitive GSK3β inhibitor, was evaluated. To this, fasting (atrophy-induced) mice were injected intraperitoneally with 16 mg/kg CHIR99021 (200 μL per mouse) on day 1 and on day 2 of fasting. At the end of the experiment, mice were sacrificed, and their tibialis anterior (TA) muscles were dissected and weighed, in comparison with fed mice and untreated fasting (atrophy-induced) mice.

Compound	GSK-3 inhibition, potency and selectivity (GSK-3)	TA muscle weight (muscle loss) ([1]; fasting mice, CHIR99021 16 mg/kg i.p. on day 1 and day 2 of fasting, data not shown, 16 mg/kg)	effect on muscle atrophy (body weight and TA muscle to body weight ratio) ([1]; 2-day fasting mice, Tideglusib via gavage, 0.87 mg on day 1 and 0.65 mg on day 2 (20-30 mg/kg) (FIGS. 4A-B))	TA muscle weight (muscle atrophy) ([1]; 2-day fasting mice)
Cc1c[nH]c(-c2cnc(NCCNc3ccc(C#N)cn3)nc2-c2ccc(Cl)cc2Cl)n1 [CHIR99021]	highly potent and selective inhibitors of GSK-3	did not mitigate this muscle loss; also recorded: inferior activity		
O=c1sn(-c2cccc3ccccc23)c(=O)n1Cc1ccccc1 [Tideglusib]			minimal effect on preventing muscle atrophy; also recorded: minor effect in treating muscle atrophy	
Myr-Gly-Lys-Glu-Ala-Pro-Pro-Ala-Pro-Pro-Gln-{Ser(p)}-Pro-NH2 (Myristoyl-GKEAPPAPPQ[pS]P-NH2; SMILES CCCCCCCCCCCCCC(=O)NCC(=O)N[C@@H](CCCCN)C(=O)N[C@@H](CCC(=O)O)C(=O)N[C@@H](C)C(=O)N1CCC[C@H]1C(=O)N1CCC[C@H]1C(=O)N[C@@H](C)C(=O)N1CCC[C@H]1C(=O)N1CCC[C@H]1C(=O)N[C@@H](CCC(N)=O)C(=O)N[C@@H](COP(=O)(O)O)C(=O)N1CCC[C@H]1C(N)=O) [L803-mts]				attenuation in muscle weight; also recorded: inferior activity to that of CHIR98014
Nc1nc(NCCNc2ncc(-n3ccnc3)c(-c3ccc(Cl)cc3Cl)n2)ccc1[N+](=O)[O-] [CHIR98014]	highly potent and selective inhibitors of GSK-3			no reduction in muscle weight compared to control; also recorded: completely prevented the reduction in muscle mass
